In patent US20230105212A1, “BIPHENYL DERIVATIVE INHIBITOR, PREPARATION METHOD THEREFOR AND USE THEREOF” (SHANGHAI HANSOH BIOMEDICAL CO., LTD., priority 2020, published 2023) one finds IC50 data, which are given here for 1 compound.

The assay deals with T1, hERG potassium channel (Homo sapiens, UniProt Q12809).
T1 construct: expressed in transfected cells; host or cells: CHO-hERG cells
Nature of the assay: Inhibitory activity test of hERG potassium channel (Qpatch, CHO-hERG cells). Type of assay: cell-based. Conditions: 6 concentrations up to 40 μM. The procedure:
Test Embodiment 9. Inhibitory Activity Test of hERG Potassium Channel
1.1 CHO-hERG cells were cultured in a 175 cm^2 culture flask. When the cell density reached 60 to 80%, the culture medium was removed, washed with 7 mL of PBS, and then digested with 3 mL of Detachin.
1.2 After the digestion was completed, 7 mL of culture medium was added to neutralize, then centrifuged, and the supernatant was aspirated, and 5 mL of culture medium was added to resuspend to ensure the cell density was 2 to 5×10^6/mL.
Single-cell high-impedance sealing and whole-cell pattern formation were all performed automatically by the Qpatch instrument. After the whole-cell recording pattern was obtained, the cell was clamped at −80 mV, before a +40 mV depolarizing stimulus for 5 s was given, a pre-voltage of −50 mV for 50 ms was given, then repolarized to −50 mV for 5 s, and then returned to −80 mV. This voltage stimulus was applied every 15 seconds, and recorded for 2 minutes, then the extracellular solution was given and then recorded for 5 minutes. Then the dosing process was started. The compound concentration started from the lowest test concentration, and each test concentration was administered for 2.5 minutes. After all concentrations were continuously administered, the positive control compound 3 μM Cisapride was administered. […]
The experimental data was analyzed by XLFit software.
Background: hERG is a cardiac potassium channel; its block is linked to QT prolongation.

T1 sequence (Q12809 whole entry): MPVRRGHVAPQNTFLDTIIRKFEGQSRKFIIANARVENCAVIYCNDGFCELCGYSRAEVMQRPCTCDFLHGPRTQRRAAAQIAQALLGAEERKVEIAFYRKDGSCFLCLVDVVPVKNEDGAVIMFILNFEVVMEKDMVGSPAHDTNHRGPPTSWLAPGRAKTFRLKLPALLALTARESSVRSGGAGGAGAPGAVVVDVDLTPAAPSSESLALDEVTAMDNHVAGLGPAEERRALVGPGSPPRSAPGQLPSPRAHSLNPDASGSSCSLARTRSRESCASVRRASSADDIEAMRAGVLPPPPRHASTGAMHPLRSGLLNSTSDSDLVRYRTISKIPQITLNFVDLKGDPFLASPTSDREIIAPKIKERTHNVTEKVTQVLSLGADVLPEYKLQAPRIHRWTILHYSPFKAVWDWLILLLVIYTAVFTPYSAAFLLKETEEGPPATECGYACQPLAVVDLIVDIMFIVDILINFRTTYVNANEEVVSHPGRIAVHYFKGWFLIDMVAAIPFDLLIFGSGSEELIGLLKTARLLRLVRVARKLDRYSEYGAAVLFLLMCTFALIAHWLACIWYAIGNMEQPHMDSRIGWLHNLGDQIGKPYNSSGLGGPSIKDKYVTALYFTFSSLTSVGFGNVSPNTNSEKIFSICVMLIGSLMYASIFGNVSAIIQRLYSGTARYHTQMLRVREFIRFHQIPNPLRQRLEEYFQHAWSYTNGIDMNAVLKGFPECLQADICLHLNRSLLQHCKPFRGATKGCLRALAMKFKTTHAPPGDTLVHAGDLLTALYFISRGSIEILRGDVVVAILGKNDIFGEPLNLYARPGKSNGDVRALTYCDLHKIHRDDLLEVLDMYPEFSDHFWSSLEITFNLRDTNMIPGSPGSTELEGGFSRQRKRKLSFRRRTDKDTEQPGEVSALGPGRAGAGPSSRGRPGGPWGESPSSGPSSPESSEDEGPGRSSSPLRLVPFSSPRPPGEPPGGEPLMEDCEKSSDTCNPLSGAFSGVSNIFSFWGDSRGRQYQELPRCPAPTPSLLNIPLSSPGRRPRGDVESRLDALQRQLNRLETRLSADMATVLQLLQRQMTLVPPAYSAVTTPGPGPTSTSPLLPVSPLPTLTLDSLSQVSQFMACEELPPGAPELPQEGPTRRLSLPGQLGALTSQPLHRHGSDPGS

In general, IC50 refers to the midpoint of a concentration-inhibition curve. Read a low IC50 as higher potency. The compound `COc1nc(-c2cccc(-c3cccc(NC(=O)c4nc5c(n4C)CCN(C)C5)c3Cl)c2Cl)ncc1CN1CC(CO)C1` [Embodiment 223, N-(2,2′-Dichloro-3′-(5-((3-(hydroxymethyl)azetidin-1-yl)methyl)-4-methoxypyrimidin-2-yl)-[1,1′-biphenyl]-3-yl)-1,5-dimethyl-4,5,6,7-tetrahydro-1H-imidazo[4,5-c]pyridine-2-carboxamide] yielded a half-inhibitory concentration (IC50) of 14.8 µM.
